Results on two compounds are retold here after article PMC9895061 (Signal Transduction and Targeted Therapy, 2023).

Read-outs that look alike come from different tables or passages of the source. A value given as a limit tells only on which side of the number the result lay.

The target in one series is T1, PRDX3 (Homo sapiens, UniProt P30048).
T1 sequence (P30048 62-256): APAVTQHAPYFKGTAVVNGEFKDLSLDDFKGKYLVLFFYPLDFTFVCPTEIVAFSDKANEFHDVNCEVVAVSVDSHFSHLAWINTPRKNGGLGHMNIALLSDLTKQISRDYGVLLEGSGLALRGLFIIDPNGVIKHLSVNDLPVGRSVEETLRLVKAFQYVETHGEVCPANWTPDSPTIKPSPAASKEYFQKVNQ
Put plainly: Trx-TrxR-NADPH coupling peroxiredoxin activity assay, PRDX3. It is filed as biochemical.

The subject of a further series is gNS SW620 cells. Put plainly: Proliferation IC50 in scrambled (gNS) SW620 cells. It is filed as cell-based. The note with it: Homo sapiens, SW-620, 24 h, read-out: IC50 against the proliferation of scrambled (gNS) SW620 cells. As for the experimental part: To generate PRDX1 knockdown cell lines, gRNA targeting […] was cloned into the vector pHBLV-U6-gRNA-EF1-CAS9-PURO from HanBio. The gRNA, psPAX2, and pMD2·G plasmids were mixed and co-transfected into HEK293T cells using Lipofectamine 2000 (Thermo Fisher Scientific). Medium with lentiviruses was collected and filtered through 0.45 μm filters at 48 h after transfection. Lentiviruses was used to infect the indicated cells with 8 μg/mL polybrene (Sigma-Aldrich) for 2 days. The infected cells were selected in medium containing 2 μg/mL puromycin (Sigma-Aldrich) for 3 days, and PRDX1 protein expression level were examined by western blot.
(§1) SW620 or HCT116 cells were seeded into 96-well plate overnight at 5000 cells per well or 4000 cells per well respectively. […] Cell numbers were assessed using the CCK-8 reagent at OD 450. The IC50 values were calculated by fitting the data points with the dose-response function in GraphPad.

The subject of series [1] is SW620 cells. Put plainly: ROS measurement by DCFH-DA staining and flow cytometry, SW620. It is filed as cell-based, human. The note with it: 2 μM, 24 h. On the procedure:
(§2) […]. DCFH-DA was deacetylated by intracellular esterase to a non-fluorescent compound, which was later oxidized by intracellular ROS to the fluorescent DCF. DCF fluorescence was detected using flow cytometer and data was analyzed using FlowJo software (version 10.4).
(§3) g, h ROS measurement of SW620 (g) and HCT116 (h) cells with compounds treatment. […].

Series [2] relates to SW620 cells. Put plainly: CCK-8 proliferation assay, SW620. The following applies: Homo sapiens, SW-620; 24 h treatment. It is filed as cell-based. As for the experimental part: as §1
The next series has as its system HCT116 cells. Put plainly: ROS measurement by DCFH-DA staining and flow cytometry, HCT116. The following applies: 2 μM, 24 h. It is filed as cell-based, human. On the procedure: as §2, §3
Another series deals with SW620-gNS xenografts. Put plainly: SW620-gNS xenograft tumor growth in nude mice. The following applies: 2 mg/kg intraperitoneally, 5 days per week for 2 weeks.
In series [3] the target is T2, recombinant wild type PRDX1 (Homo sapiens, UniProt Q06830).
T2 sequence (Q06830 1-199): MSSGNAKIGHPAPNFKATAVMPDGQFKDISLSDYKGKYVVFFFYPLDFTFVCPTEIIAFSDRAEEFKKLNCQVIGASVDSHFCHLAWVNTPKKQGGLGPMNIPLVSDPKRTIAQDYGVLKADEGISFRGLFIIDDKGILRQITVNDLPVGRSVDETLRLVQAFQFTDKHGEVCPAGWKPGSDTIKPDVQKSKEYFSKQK
The experiment in a line: Surface plasmon resonance (SPR) assay. Format: binding.

Another series has as its system nude mice. Put plainly: Chronic toxicity test, routine blood test. The note with it: 2 mg/kg, 5 days per week for two weeks.
Series [4] deals with T3, PRDX1 (Homo sapiens, UniProt Q06830).
T3 sequence (Q06830 1-199): T2 sequence (Q06830 1-199)
Put plainly: Determination of Kinact and Ki for inhibition of PRDX1's peroxidase activity. Format: biochemical.

Series [5] deals with T3, PRDX1. Put plainly: Trx-TrxR-NADPH coupling peroxiredoxin activity assay, PRDX1. Format: biochemical.

On to `COC(=O)[C@H](C)NC(=O)N[C@]1(C)CC[C@]2(C)CC[C@]3(C)C4=CC=C5C(=CC(=O)C(O)=C5C)[C@]4(C)CC[C@@]3(C)[C@@H]2C1` [19-048, Methyl (((2R,4aS,6aS,12bR,14aS,14bR)-10-hydroxy-2,4a,6a,9,12b,14a-hexamethyl-11-oxo-1,2,3,4,4a,5,6,6a,11,12b,13,14,14a,14b-tetradecahydropicen-2-yl)carbamoyl)-L-alaninate], for which, at PRDX3 (recombinant PRDX3), the “inhibition of the peroxidase activity of PRDX3 (in words)” value was “no obvious inhibition”. The IC50 was above 100000 nM at PRDX3 (recombinant PRDX3, 1.5 h incubation, mean ± SEM, triplicate, read-out: IC50 against the peroxidase activity of PRDX3); 529 ± 6.69 nM with gNS SW620 cells; 528 nM in the series on SW620 cells [2]. Moreover, in the series with SW620 cells [1], the “ROS-positive rate, SW620” value worked out at 74.77%. Moreover, the “ROS-positive rate, HCT116” value in the series on HCT116 cells was determined as 91.7%. The “tumor progression of SW620-gNS xenografts (in words)” value in the series on SW620-gNS xenografts is given as “suppressed the overall tumor progression”.

For `CC1=C(O)C(=O)C=C2C1=CC=C1[C@@]2(C)CC[C@@]2(C)[C@@H]3C[C@](C)(C(=O)O)CC[C@]3(C)CC[C@]12C` [Celastrol, reference compound], the IC50 against PRDX3 came out at 6670 ± 520 nM; in the series with gNS SW620 cells it was 634 ± 11.3 nM; with SW620 cells [2] it was 690 nM; against PRDX1 [5], 290 ± 10 nM. The Kd in [3] turned out to be 360 nM. Also, the “ROS-positive rate, SW620” value with SW620 cells [1] came out at 61.07%. In addition, the “count and proportion of monocyte and neutrophil, routine blood test (in words)” value in the series with nude mice is given as “higher than the reference intervals”. Besides, the Ki at PRDX1 [4] turned out to be 950 ± 86 nM. Besides, the “ROS-positive rate, HCT116” value in the series on HCT116 cells is given as 88.4%. Further, the “tumor progression of SW620-gNS xenografts (in words)” value in the series with SW620-gNS xenografts is recorded as “suppressed the overall tumor progression”.
